Data from patent US20130324503A1, “Method of identifying and treating a person having a predisposition to or afflicted with Parkinson disease” (Health Research Inc., priority 2010, published 2013).
Like-named read-outs stand apart in the source and are kept apart here.

Experiments:
[1] = tested on: D. melanogaster w^1118 females
Procedure: (§1) All experiments were conducted with D. melanogaster w^1118 females (Bloomington Drosophila Stock Center) kept at consistent conditions at 25° C., 55% humidity, and ambient light. […] Flies were transferred to new vials every other day. […] These solutions were prepared fresh before each batch of media preparation and were added to warmed, liquefied standard fly food (prepared with agar, cornmeal, sucrose and yeast) and mixed thoroughly prior to pouring into vials. Food was prepared fresh at least monthly.
Flies were followed according to the same protocol, counting dead flies daily until all were dead. Survival data were plotted using Kaplan Meier survival analysis^17, mean and median survival times were calculated, and the differences between the survival curves were tested using log rank statistics in SPSS.

[2] = in vivo; cited from earlier work
[3] = tested on: D. melanogaster w^1118 females; conditions: in vivo
Procedure: as §1

CG14691 = assay type: in vivo, D. melanogaster; conditions: 5 mM paraquat for six days, compared to untreated flies
Procedure: as §1

[4] = 5 mM paraquat, nicotine 0 mg/ml

In the case of `CN1CCC[C@H]1c1cccnc1` [nicotine, 1-methyl-2-(3-pyridyl)pyrrolidone], the “Nicotine restored survival of paraquat-treated flies” value ([1]; in vivo) is reported as at most 25%, the effect on survival ([1]; in vivo) is reported as “beneficial effect” and the “improvement of survival of paraquat-treated flies” value ([1]; in vivo) is reported as “up to 25%”. For the same compound, the Oral bioavailability [2] was “about 30%” and the effect on survival [3] was “did not have a notable effect on survival”.
For `C[n+]1ccc(-c2cc[n+](C)cc2)cc1` [paraquat, Methyl viologen dichloride hydrate], the “rise in CG14691 expression” value (CG14691) was 8%, the shortening of lifespan ([1]; 5 mM paraquat vs untreated flies) was 63% and the “Mean survival Days ± SE” value [1, 4] was 14.0 ± 0.4 days. The “Median survival Days ± SE” value [1, 4] was 16 ± 0.5 days and the “Reduction of median survival by paraquat” value ([1]; in vivo) was “Paraquat reduced median survival by 63%”.
